Assay results reported in patent US9765052B2, “Anthranilamide compounds, their mixtures and the use thereof as pesticides” (BASF SE, priority 2013, dated 2017).

What was measured:
[1] = test system: green peach aphid (Myzus persicae); test: Test 1: control of green peach aphid through systemic means (artificial diet, 96-well microtiter plates); format: in vivo; details: 3 days
From the text: If present, synergism can be described as an interaction where the combined effect of two or more compounds is greater than the sum of the individual effects of each of the compounds. The presence of a synergistic effect in terms of percent control, between two mixing partners (X and Y) can be calculated using the Colby equation (Colby, S. R., 1967, Calculating Synergistic and Antagonistic Responses in Herbicide Combinations, Weeds, 15, 20-22):
When the observed combined control effect is greater than the expected combined control effect (E), then the combined effect is synergistic.
For evaluating control of green peach aphid (Myzus persicae) through systemic means the test unit consisted of 96-well-microtiter plates containing liquid artificial diet under an artificial membrane.
The compounds or mixtures were formulated using a solution containing 75% water and 25% DMSO. Different concentrations of formulated compounds or mixtures were pipetted into the aphid diet, using a custom built pipetter, at two replications.
For experimental mixtures in these tests identical volumes of both mixing partners at the desired concentrations respectively, were mixed together.
After application, 5-8 adult aphids were placed on the artificial membrane inside the microtiter plate wells. The aphids were then allowed to suck on the treated aphid diet and incubated at […], 50±5% RH for 3 days. Aphid mortality and fecundity was then visually assessed. For the mixture tested the results are listed in the tables for Example E2-1 and E2-2.

[2] = Degradation in soil; format: physicochemical; details: neutral sandy loam soil LUFA 5M; incubated at 27° C. and 40% of max. water-holding capacity over 90 days; DT50 referring to 20° C.; SFO or DFOP kinetics
Description: Degradation of the compound (I-B-131) and compound (I-B-33) in soil was compared. The two compounds were incubated in neutral sandy loam soil (LUFA 5M) at 27° C. and 40% of the max. water-holding capacity over a period of 90 days. Soil extraction was carried out with acetonitrile followed by acetonitrile/water (1/1) and the extracted test compounds were quantified by HPLC-MS. The following DT50 values (referring to 20° C.) were obtained assuming single first order (SFO) or double first order in parallel (DFOP) kinetics: […]

[3] = test system: Diamide-resistant diamond back moth (Plutella xylostella), Cebu strain; details: third instar larvae, mortality 3 days after inoculation; comparing LC50s and LC90s
[4] = test system: Neonicotinoid and pyrethroid resistant strain of the green peach aphid (Myzus persicae); test: B2 a) Myzus persicae mixed population, contact activity, curative on pea seedlings; Resistance Factor RF80; format: in vivo; details: FRC-P strain (neonicotinoid resistant) vs standard screening strain of Myzus persicae; lowest concentration giving greater than 80% mortality, 6 days after treatment
From the text: B2: Determination of the cross-resistance status of compounds I when applied against agronomically important pest species resistant to one or more commercially available class of insecticide.
(§1) The level of resistance and therefore the impact on the performance of the insecticide can be measured by the use of a ‘Resistance Factor’. The resistance factor can be calculated by dividing the concentration of an insecticide that provides a set level of mortality (i.e. 80 percent) for the ‘resistant’ strain with the concentration of the same insecticide that provides the same level of mortality for the ‘susceptible’ insect of the same species and life-stage. Although there are no set rules, a low value (1-10) indicates no cross-resistance and only natural levels of variation and a high value (50+) provides strong evidence of cross-resistance.
a) Neonicotinoid and Pyrethroid Resistant Strain of the Green Peach Aphid (Myzus persicae)
Myzus persicae strains utilised: • Standard screening strain of Myzus persicae (Neonicotinoid susceptible) • FRC-P strain of Myzus persicae (Neonicotinoid resistant) Bioassay Method
Myzus persicae: mixed population, contact activity, curative on pea seedlings
Pea seedlings, infested with an aphid population of mixed ages, are treated with the test solutions in a spray chamber. 6 days after treatment, samples are checked for mortality. […]

[5] = test system: Neonicotinoid resistant strain of the brown planthopper (Nilaparvata lugens); test: B2 b) Nilaparvata lugens larvicide, feeding/contact activity, preventive on rice seedlings; Resistance Factor RF80; format: in vivo; details: IND3 strain (neonicotinoid resistant) vs standard screening strain of Nilaparvata lugens; lowest concentration giving greater than 80% mortality
From the text: as §1
b) Neonicotinoid Resistant Strain of the Brown Planthopper (Nilaparvata lugens)
Nilaparvata lugens strains utilised: • Standard screening strain of Nilaparvata lugens (Neonicotinoid susceptible) • IND3 strain of Nilaparvata lugens (Neonicotinoid resistant) Bioassay Method: Nilaparvata lugens: Larvicide, Feeding/Contact Activity, Preventive
Rice seedlings are treated with the diluted test solutions in a turn table spray chamber. After drying, they are infested with 20 N3 nymphs. 6 and 12 days after the treatment samples are checked for mortality, growth regulation, and effects on the Fi generation.
The Resistance Factor (RF80) of different compounds is tested. […]

[6] = test system: ALM07 strain (neonicotinoid and pyrethroid resistant), adult whitefly
From the text: Bioassay Method Bemisia tabaci Residual Activity, Preventive Egg Lay

SMILES: CC(NC(=O)c1cc(Cl)cc(Br)c1NC(=O)c1cc(Br)nn1-c1ncccc1Cl)C1CC1 (stereo not shown) [I-A-1]
- Average Control % ([1]; Example E2-1, 0.4 ppm): 0%
- Average Control % ([1]; Example E2-2, 0.8 ppm): 0%

SMILES: CC1=NNC(=O)N(/N=C/c2cccnc2)C1 [Pymetrozine, pymetrozine]
- Average Control % ([1]; Example E2-1, 80 ppm): 0%

SMILES: Cc1cc(Cl)cc(C(N)=O)c1NC(=O)c1cc(C(F)(F)F)nn1-c1ncccc1Cl [I-B-131, N-(2-carbamoyl-4-chloro-6-methyl-phenyl)-2-(3-chloro-2-pyridyl)-5-(trifluoromethyl)pyrazole-3-carboxamide]
- DT50 [2]: 41 days

SMILES: CNC(=O)c1cc(Cl)cc(C)c1NC(=O)c1cc(Br)nn1-c1ncccc1Cl [I-B-33, chlorantraniliprole]
- DT50 [2]: 89 days
- Average Control % ([1]; Example E2-2, 0.4 ppm): 0%

SMILES: Cc1cc(C(F)(C(F)(F)F)C(F)(F)F)ccc1NC(=O)c1cccc(I)c1C(=O)NC(C)(C)CS(C)(=O)=O [flubendiamide]
- Efficacy against field collected Cebu strain of Plutella xylostella [3]: only weak efficacies

SMILES: CN1COCN(Cc2cnc(Cl)s2)/C1=N\[N+](=O)[O-] [thiamethoxam]
- Resistance Factor (RF80) [4]: > 250
- Resistance Factor (RF80) [5]: > 64
- RF in residual mortality bioassay of adult whitefly [6]: > 250
